Test results from ChEMBL document CHEMBL1128813, “Inhibitors of glucosidases with related structures and inverse specificity” (Bioorg Med Chem Lett, 1995).

Experiments:
[1] = Inhibitory activity against Beta-glucosidase from Almond; design: species or system Prunus dulcis
[2] = Inhibitory activity against Beta-glucosidase from Yeast; design: species or system Saccharomyces cerevisiae
[3] = Inhibitory activity against Beta-glucosidase from E-coli; design: species or system Escherichia coli

Row | Ki [1] [µM] | Ki [2] [µM] | Structure (SMILES) | Ki [3] [µM]
1 | 100 |  | OCC1O/C(=N\O)C(O)C(O)C1O (centres undefined) | 
2 | 80 | 2.5 | O=[N+]([O-])c1ccc(O/N=C2\OC(CO)C(O)C(O)C2O)c([N+](=O)[O-])c1 (centres undefined) | 120
